Structures can show the parent of a compound that is named as a salt.
Key:
[1] = Compatibility study of dissolved tofacitinib citrate with excipients, 60° C. seven days, HPLC; type: physicochemical; settings: 1 Week
Description: The total degradation products in the mixtures were further analyzed by HPLC.

[2] = Solubility study of tofacitinib citrate in various solvents (HPLC); type: physicochemical; settings: for solubility: thermodynamic from solid
Experimental: A solubility study was conducted in the course of formulation development. The suspension was stirred overnight and filtered through 0.22 μm filter. The filtrate was diluted into suitable concentration.

C[C@@H]1CCN(C(=O)CC#N)C[C@@H]1N(C)c1ncnc2[nH]ccc12 [Tofacitinib Citrate, 3-((3R,4R)-4-methyl-3-[methyl-(7H-pyrrolo[2,3-d]pyrimidin-4-yl)-amino]-piperidin-1-yl)-3-oxopropionitrile]
Total Degradation Products [1]: 0.06% | Solubility Descriptive Term ([2]; 0.1N HCl): Sparingly | solubility ([2]; 0.1N HCl, simulated gastric fluid): 23900 µg/mL | Solubility Descriptive Term ([2]; Dimethyl sulfoxide (DMSO)): Freely soluble | Solubility Descriptive Term ([2]; Dimethyl sulfoxide (DMSO), listed as tofacitinib citrate): freely soluble | Solubility Descriptive Term ([2]; Ethanol): Very slightly | Solubility Descriptive Term ([2]; Ethanol, listed as tofacitinib citrate): very slightly soluble | Solubility Descriptive Term ([2]; H2O): Slightly soluble | Solubility Descriptive Term ([2]; H2O, listed as tofacitinib citrate): slightly soluble | Solubility Descriptive Term ([2]; Propylene Glycol (PG)): Slightly soluble | Solubility Descriptive Term ([2]; Propylene Glycol (PG), listed as tofacitinib citrate): slightly soluble | solubility ([2]; aqueous buffer, pH 3.0, 50 mM Citrate Buffer): 600 µg/mL | solubility ([2]; aqueous buffer, pH 4.5, 50 mM Acetate Buffer): 1810 µg/mL | solubility ([2]; aqueous buffer, pH 6.8, 50 mM Phosphate Buffer): 120 µg/mL | solubility ([2]; aqueous buffer, pH 7.5, 50 mM Phosphate Buffer): 120 µg/mL | solubility ([2]; aqueous buffer, pH 9.0, 50 mM Phosphate Buffer): 120 µg/mL | solubility ([2]; aqueous with cosolvent or surfactant or cyclodextrin, pH 4.5, 50 mM Acetate Buffer/PEG300 = 70/30): 3160 µg/mL | solubility ([2]; aqueous with cosolvent or surfactant or cyclodextrin, pH 7.5, 50 mM Phosphate Buffer/PEG300 = 70/30): 1590 µg/mL | solubility ([2]; dimethyl sulfoxide (DMSO), organic solvent or mixture): > 100000 µg/mL | solubility ([2]; ethanol, organic solvent or mixture): 480 µg/mL | Solubility Descriptive Term ([2]; pH 3.0, 50 mM Citrate Buffer): Very slightly | Solubility Descriptive Term ([2]; pH 4.5, 50 mM Acetate Buffer): Slightly soluble | Solubility Descriptive Term ([2]; pH 4.5, 50 mM Acetate Buffer/PEG300 = 70/30): Slightly soluble | Solubility Descriptive Term ([2]; pH 6.8, 50 mM Phosphate Buffer): Very slightly | Solubility Descriptive Term ([2]; pH 7.5, 50 mM Phosphate Buffer): Very slightly | Solubility Descriptive Term ([2]; pH 7.5, 50 mM Phosphate Buffer/PEG300 = 70/30): Slightly soluble | Solubility Descriptive Term ([2]; pH 9.0, 50 mM Phosphate Buffer): Very slightly | solubility ([2]; propylene glycol (PG), organic solvent or mixture): 1920 µg/mL | solubility ([2]; water, H2O): 3000 µg/mL
